According to patent US20070184554A1, “Biomarker of improved intestinal function” (NPS ALLELIX CORP., priority 2005, published 2007):

How the values were obtained:
plasma citrulline = experiment: Plasma citrulline levels in human Crohn's Disease patients treated with Teduglutide (randomized, double-blind, placebo-controlled clinical study); type: in vivo; settings: for Baseline plasma citrulline levels, mean: baseline (Dosing Day 1), subjects with moderately active CD; for 2-week plasma citrulline levels, mean: week 2; for 2-week plasma citrulline levels, mean / 4-week plasma citrulline levels, mean / 8-week plasma citrulline levels, mean: subcutaneous injection daily, CD subjects; for 4-week plasma citrulline levels, mean: week 4; for 8-week plasma citrulline levels, mean: week 8
Experimental: In a further experiment plasma citrulline levels in human patients treated with Teduglutide for the treatment of Crohn's Disease (CD) were determined. Subjects with moderately active CD were treated in a randomized, double-blind, placebo-controlled clinical study to assess the activity of 3 different doses of Teduglutide compared to placebo. The primary objective of the study was to assess the efficacy and the secondary objectives were to assess the safety and tolerability of the different doses of Teduglutide as compared to placebo. Following a screening visit to evaluate whether subjects met the inclusion/exclusion criteria, the study ran over a period of up to 12 weeks, including visits at baseline/Dosing Day 1, Weeks 2, 4, and 8, and one at the end of the follow-up period at Week 12. Teduglutide doses administered by subcutaneous injection were 0.05, 0.10 and 0.20 mg/kg on a daily basis for 8 weeks. The primary efficacy variable used was the percentage of subjects with a response, defined as a 100-point or greater reduction in the subject's CDAI score at dosing Week 8 from their baseline score or a CDAI score less than 150 at Week 8.

arrhythmia incidence = settings: CAST, cited from earlier work; for mortality in the drug treatment groups: fold greater
bone mineral density = settings: administration of fluoride, cited from earlier work

For `CC[C@H](C)[C@H](NC(=O)[C@H](Cc1ccccc1)NC(=O)[C@H](CC(=O)O)NC(=O)[C@H](CCCNC(=N)N)NC(=O)[C@H](C)NC(=O)[C@H](C)NC(=O)[C@H](CC(C)C)NC(=O)[C@H](CC(N)=O)NC(=O)[C@H](CC(=O)O)NC(=O)[C@H](CC(C)C)NC(=O)[C@@H](NC(=O)[C@@H](NC(=O)[C@H](CC(N)=O)NC(=O)[C@H](CCSC)NC(=O)[C@H](CCC(=O)O)NC(=O)[C@H](CC(=O)O)NC(=O)[C@H](CO)NC(=O)[C@H](Cc1ccccc1)NC(=O)[C@H](CO)NC(=O)CNC(=O)[C@H](CC(=O)O)NC(=O)CNC(=O)[C@@H](N)Cc1c[nH]cn1)[C@@H](C)O)[C@@H](C)CC)C(=O)N[C@@H](CC(N)=O)C(=O)N[C@@H](Cc1c[nH]c2ccccc12)C(=O)N[C@@H](CC(C)C)C(=O)N[C@H](C(=O)N[C@@H](CCC(N)=O)C(=O)N[C@H](C(=O)N[C@@H](CCCCN)C(=O)N[C@H](C(=O)N[C@H](C(=O)N[C@@H](CC(=O)O)C(=O)O)[C@@H](C)O)[C@@H](C)CC)[C@@H](C)O)[C@@H](C)CC` [Teduglutide], the “Baseline plasma citrulline levels, mean” value (plasma citrulline; 0.05 mg group) was 21.6 µmol/L, the “Baseline plasma citrulline levels, mean” value (plasma citrulline; 0.10 mg group) was 24.7 µmol/L and the “Baseline plasma citrulline levels, mean” value (plasma citrulline; 0.20 mg group) was 24.5 µmol/L. For the same compound, the “mean citrulline level, change” value (plasma citrulline; from baseline to week 8, teduglutide-treated groups, placebo group remains the same) was “increases”, the “2-week plasma citrulline levels, mean” value (plasma citrulline; 0.05 mg group) was 30.3 µmol/L and the “2-week plasma citrulline levels, mean” value (plasma citrulline; 0.10 mg group) was 36.9 µmol/L. For the same compound, the “2-week plasma citrulline levels, mean” value (plasma citrulline; 0.20 mg group) was 32.7 µmol/L, the “4-week plasma citrulline levels, mean” value (plasma citrulline; 0.05 mg group) was 34.5 µmol/L and the “4-week plasma citrulline levels, mean” value (plasma citrulline; 0.10 mg group) was 49.1 µmol/L. The “4-week plasma citrulline levels, mean” value (plasma citrulline; 0.20 mg group) was 38.8 µmol/L, the “8-week plasma citrulline levels, mean” value (plasma citrulline; 0.05 mg group) was 37.9 µmol/L and the “8-week plasma citrulline levels, mean” value (plasma citrulline; 0.10 mg group) was 46.0 µmol/L. For the same compound, the “8-week plasma citrulline levels, mean” value (plasma citrulline; 0.20 mg group) was 41.8 µmol/L.
In the case of `COc1ccc(C(=O)Nc2ccccc2CCC2CCCCN2C)cc1` (stereo not shown) [encainide], the arrhythmia incidence (arrhythmia incidence) is listed as “significant reduction” and the “mortality in the drug treatment groups” value (arrhythmia incidence) is listed as 3 fold.
For `O=C(NCC1CCCCN1)c1cc(OCC(F)(F)F)ccc1OCC(F)(F)F` (stereo not shown) [flecainide], the arrhythmia incidence (arrhythmia incidence) is given as “significant reduction” and the “mortality in the drug treatment groups” value (arrhythmia incidence) is given as 3 fold.
In the case of `F` [fluoride], the fracture risk (bone mineral density; also weaker bone strength) is listed as “increased fracture risk” and the bone mineral density (bone mineral density) is listed as “significant increases”.
